# Test system: Cell Line 3
# Assay: N-glycan oligosaccharide profiling, Cell Line 3 shake flasks (Example 2)
# Type: cell-based, Chinese Hamster
# Conditions: 30 mM supplement vs control
# Experimental: Two recombinant Chinese Hamster Ovary (CHO) cell lines expressing two different recombinant glycoproteins were evaluated in two different cultures vessels (shaker flasks and 3 L laboratory scale bioreactors). Cell Line 1 expressed Antibody 1, Cell Line 2 expressed Dual Variable Domain Immunoglobulin 1 (DVD 1) and Cell Line 3 expressed Antibody 2. Antibodies 1 and 2 are IgG1 proteins, and DVD 1 is an immunoglobulin with two variable domains as documented previously (Wu C. et al., (2007) Nat. Biotechnol 25(11):1290-1297). All cell lines were of CHO DUX-B11 origin based on a dhfr (dihydrofolate reductase) expression system. All cell lines were cultured in the same chemically defined basal media. Cell lines 1 and 2 were fed with the same chemically-defined feed media, but Cell Line 1 was fed media that was formulated at a 50% higher concentration. Each of the respective media were supplemented with either sucrose or tagatose to evaluate their potential impact on the resulting N-glycan oligosaccharide profile. All sugars were purchased from Sigma-Aldrich (St. Louis, Mo.). In preparation of the cultures, the cell lines were serially expanded through separate seed train inoculums to generate enough cells for inoculation.
# Purified antibodies subjected to additional analytical characterization were purified using MabSelect™ Protein A (GE Healthcare, Piscataway, N.J.) using a low pH, step elution gradient, followed by buffer exchange using Corning Lifesciences (Tewksbury, Mass.) Spin Concentrator X UF columns according to the manufacturers' recommended procedures.
# Approximately 200 μg of Protein A purified samples from Cell Lines 1 and 2 were treated with N-glycanase at 37° C. overnight to remove the N-glycans from the protein. The protein was precipitated and the supernatant was taken for subsequent chemical derivatization of the reducing end of the released glycans with 2-aminobenzamide (2-AB) dye. Following the derivatization step, the excess label was removed using clean up cartridges and the samples were analyzed using normal phase HPLC with fluorescent detection. Mobile phase A was 100% acetonitrile and mobile phase B was 50 mM ammonium formate pH 4.4. The glycans were eluted from a polyamide column (Prozyme, Hayward, Calif.) using a shallow gradient. The labeled glycans were detected using a fluorescence detector with an excitation wavelength of 330 nm and an emission wavelength of 420 nm.
# Cell Line 3 was evaluated in shake flask culture in chemically defined media supplemented with 7, 15, and 30 mM sucrose. There was a significant increase in overall mannosylation levels, and thus a significant decrease in overall fucosylation levels. […] This cumulative increase of 19% in overall mannosylated N-glycans was accompanied by a 27% drop in NGA2F species, the majority of which was precluded from being formed due to the abrogation of the N-glycan biosynthetic reaction shown in FIG. 2. […] Antibody 3, purified from the sucrose supplemented cell cultures, was tested in a Cr-51 release assay to evaluate effector function, specifically ADCC activity. This was performed to verify that the lower level of fucosylated N-glycans linked to Antibody 3 would facilitate an increase in ADCC activity. Antibodies purified from the 30 mM sucrose supplemented culture had the highest levels of high mannose N-glycans, and lowest levels of fucosylated N-glycans.
smiles,measurement,value
OC[C@H]1O[C@@](CO)(O[C@H]2O[C@H](CO)[C@@H](O)[C@H](O)[C@H]2O)[C@@H](O)[C@@H]1O [sucrose],cumulative increase in overall mannosylated N-glycans,19%
same,decrease in overall fucosylation level,19%
same,drop in NGA2F species,27%
same,increase in Man 5 species,17%
same,increase in Man 6 species,1%
same,increase in Man 7 species,1%
same,increase in NGA2F-GlcNAc species,8%
